Data published in ChEMBL document CHEMBL1144830, “Synthesis of small molecule inhibitors of the orphan nuclear receptor steroidogenic factor-1 (NR5A1) based on isoquinolinone scaffolds” (Bioorg Med Chem Lett, 2008).

Experiments:
[1] = target: T1, Nuclear receptor ROR-alpha (Homo sapiens) (UniProt P35398); test: Inhibition of GAL4-tagged RORalpha at 100 uM by luciferase assay
T1 sequence (whole entry): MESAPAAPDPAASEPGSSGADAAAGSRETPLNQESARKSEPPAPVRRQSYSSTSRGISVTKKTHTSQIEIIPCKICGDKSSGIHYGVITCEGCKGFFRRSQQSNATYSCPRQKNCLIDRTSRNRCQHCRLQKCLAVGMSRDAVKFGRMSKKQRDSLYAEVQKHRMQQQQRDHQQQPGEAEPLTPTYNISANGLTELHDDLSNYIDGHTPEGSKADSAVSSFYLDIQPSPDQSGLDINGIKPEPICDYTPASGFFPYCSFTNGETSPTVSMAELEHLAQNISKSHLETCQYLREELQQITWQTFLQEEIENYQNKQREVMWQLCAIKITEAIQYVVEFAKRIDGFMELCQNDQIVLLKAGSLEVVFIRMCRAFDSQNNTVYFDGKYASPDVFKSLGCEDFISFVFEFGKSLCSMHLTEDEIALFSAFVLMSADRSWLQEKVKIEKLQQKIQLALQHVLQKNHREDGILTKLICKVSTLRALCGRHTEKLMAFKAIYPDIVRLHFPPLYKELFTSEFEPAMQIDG

[2] = Inhibition of HSV1 GAL4-tagged VP16 at 100 uM by luciferase assay
[3] = target: T2, Steroidogenic factor 1 (Homo sapiens, UniProt Q13285); test: Inhibition of GAL4-tagged NR5A1 by luciferase assay
[4] = target: T3, Nuclear receptor ROR-alpha (Homo sapiens, UniProt P35398); test: Inhibition of GAL4-tagged RORalpha by luciferase assay
T3 sequence (P35398 whole entry): T1 sequence (whole entry)

[5] = Inhibition of HSV1 GAL4-tagged VP16 by luciferase assay
[6] = target: T2, Steroidogenic factor 1; test: Inhibition of GAL4-tagged NR5A1 at 100 uM by luciferase assay

T2 sequence (Q13285 whole entry, the tested form may be a part): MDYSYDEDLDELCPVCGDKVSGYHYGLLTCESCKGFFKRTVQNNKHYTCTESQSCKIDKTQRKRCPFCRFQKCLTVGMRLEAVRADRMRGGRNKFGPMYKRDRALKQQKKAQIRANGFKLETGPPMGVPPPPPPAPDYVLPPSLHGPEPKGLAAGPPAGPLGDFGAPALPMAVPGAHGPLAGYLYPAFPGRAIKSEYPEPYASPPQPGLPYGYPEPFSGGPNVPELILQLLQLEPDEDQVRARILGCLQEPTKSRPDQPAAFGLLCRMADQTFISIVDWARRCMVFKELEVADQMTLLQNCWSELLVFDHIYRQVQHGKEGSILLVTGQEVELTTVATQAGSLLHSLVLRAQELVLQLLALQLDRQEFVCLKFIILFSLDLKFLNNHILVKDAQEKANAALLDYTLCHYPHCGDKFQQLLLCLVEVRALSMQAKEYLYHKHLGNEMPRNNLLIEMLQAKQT

Structure (SMILES)	inhibition [1]	inhibition [2]	IC50 [3]	IC50 [4]	IC50 [5]	inhibition [6]
CCCCNC(=O)Cn1ccc2c(OC(C)C(=O)OCC)cccc2c1=O (stereo unspecified)	< 50%	< 50%	9.71 µM			
CCOC(=O)C(C)Oc1cccc2c(=O)n(CC(=O)NCCc3ccccc3)ccc12 (stereo unspecified)		< 50%	0.36 µM	> 33 µM		
CCOC(=O)C(C)Oc1cccc2c(=O)n(CC(=O)NC3CCCCC3)ccc12 (stereo unspecified)	< 50%	< 50%	1.77 µM			
CCOC(=O)C(C)Oc1cccc2c(=O)n(CC(=O)Nc3ccc(OC)cc3)ccc12 (stereo unspecified)	< 50%	< 50%	0.2 µM			
CCOC(=O)C(C)Oc1cccc2c(=O)n(CC(=O)NCc3ccc(F)cc3)ccc12 (stereo unspecified)		< 50%	0.68 µM	1.68 µM		
CCOC(=O)C(C)Oc1cccc2c(=O)n(CC(=O)Nc3ccc(OCC)cc3)ccc12 (stereo unspecified)			0.19 µM	22.6 µM	24.2 µM	
CCCCc1ccc(NC(=O)Cn2ccc3c(OC(C)C(=O)OCC)cccc3c2=O)cc1 (stereo unspecified)		< 50%	0.36 µM	30.7 µM		
CCOC(=O)C(C)Oc1ccc2c(=O)n(CC(=O)Nc3ccc4c(c3)OCCO4)ccc2c1 (stereo unspecified)	< 50%	< 50%				< 50%
CCOC(=O)C(C)Oc1cccc2c(=O)n(C(Cc3ccccc3)C(=O)Nc3ccc4c(c3)OCCO4)ccc12 (stereo unspecified)	< 50%	< 50%				< 50%
CCOC(=O)C(C)Oc1cccc2c(=O)n(CC(=O)NCc3ccco3)ccc12 (stereo unspecified)		< 50%	4.71 µM	> 33 µM		
CCOC(=O)C(C)Oc1cccc2c(=O)n(CC(=O)NCc3ccccc3)ccc12 (stereo unspecified)		< 50%	1.06 µM	3.22 µM		
CCOC(=O)C(C)Oc1cccc2c(=O)n(CC(=O)Nc3ccc(C)cc3)ccc12 (stereo unspecified)			0.34 µM	36.5 µM	> 33 µM	
CCOC(=O)C(C)Oc1cccc2c(=O)n(CC(=O)Nc3ccc([N+](=O)[O-])cc3)ccc12 (stereo unspecified)	< 50%	< 50%	0.53 µM			
CCOC(=O)C(C)Oc1cccc2c(=O)n(CC(=O)Nc3ccc(CC)cc3)ccc12 (stereo unspecified)			0.11 µM	25 µM	> 33 µM	
CCOC(=O)C(C)Oc1cccc2c(=O)n(CCC(=O)Nc3ccc4c(c3)OCCO4)ccc12 (stereo unspecified)	< 50%	< 50%	8.46 µM			
CCOC(=O)C(C)(C)Oc1cccc2c(=O)n(CC(=O)Nc3ccc4c(c3)OCCO4)ccc12	< 50%		0.59 µM		> 33 µM	
CCOC(=O)C(C)Oc1cccc2c(=O)n(C(C)C(=O)Nc3ccc4c(c3)OCCO4)ccc12 (stereo unspecified)	< 50%	< 50%				< 50%
CCOC(=O)C(C)Oc1cccc2c(=O)n(CC(=O)Nc3ccc4c(c3)OCCO4)ccc12 (stereo unspecified)			0.76 µM	> 33 µM	> 33 µM	
CCOC(=O)C(C)Oc1cccc2c(=O)n(CC(=O)N(C)c3ccc4c(c3)OCCO4)ccc12 (stereo unspecified)	< 50%	< 50%	3.57 µM			
CCCCOc1cccc2c(=O)n(CC(=O)Nc3ccc4c(c3)OCCO4)ccc12			13.7 µM	21.5 µM	24.1 µM	
CCOC(=O)C(C)Oc1cccc2c(=O)n(CC(=O)Nc3ccc(OC(F)(F)F)cc3)ccc12 (stereo unspecified)	< 50%	< 50%	0.2 µM			
CCOC(=O)C(C)Oc1cccc2c(=O)n(CC(=O)NCc3ccc4c(c3)OCO4)ccc12 (stereo unspecified)			0.26 µM	> 33 µM	> 33 µM	
